Data on three compounds can be found in ChEMBL document CHEMBL1157694, “Synthesis of a new cytotoxic cephalostatin/ritterazine analogue from hecogenin and 22-epi-hippuristanol” (2010).

What all share (assay type): functional
One experiment concerns MDA-MB-231. The experiment can be described thus: Growth inhibition of human MDA-MB-231 cells after 72 hrs by sulforhodamine B assay. Conditions: MDA-MB-231, 72 h.
The test system of the next experiment is A549. Put plainly: Growth inhibition of human A549 cells after 72 hrs by sulforhodamine B assay. Conditions: A549, 72 h.
For the next experiment, the system named is HT-29. The experiment can be described thus: Growth inhibition of human HT-29 cells after 72 hrs by sulforhodamine B assay. Conditions: HT-29, 72 h.

For the compound `C[C@H]1CC[C@@]2(OC1)O[C@H]1C[C@H]3[C@@H]4CC[C@H]5Cc6nc7c(nc6C[C@]5(C)[C@H]4CC(=O)[C@]3(C)[C@H]1[C@@H]2C)C[C@@H]1CC[C@H]2[C@@H]3C[C@@H]4O[C@]5(C[C@H](C)C(C)(C)O5)[C@](C)(O)[C@@H]4[C@@]3(C)CC(=O)[C@@H]2[C@@]1(C)C7`, the GI50 in the experiment on MDA-MB-231 was 2000 nM; with A549, 1600 nM; in the experiment on HT-29, 1600 nM.

For the compound `C[C@H]1CC[C@@]2(OC1)O[C@H]1C[C@H]3[C@@H]4CC[C@H]5Cc6nc7c(nc6C[C@]5(C)[C@H]4CC(=O)[C@]3(C)[C@H]1[C@@H]2C)C[C@@H]1CC[C@@H]2[C@H](CC(=O)[C@]3(C)[C@@H]4[C@H](C[C@@H]23)O[C@]2(CC[C@H](C)CO2)[C@H]4C)[C@@]1(C)C7`, the GI50 in the experiment on MDA-MB-231 is 2600 nM; with A549, 1700 nM; in the experiment on HT-29, 2100 nM.

As for `C[C@H]1C[C@]2(O[C@H]3C[C@H]4[C@@H]5CC[C@H]6C[C@H](O)CC[C@]6(C)[C@H]5[C@@H](O)C[C@]4(C)[C@H]3[C@@]2(C)O)OC1(C)C` [EPIHIPPURISTANOL], the concentration for 50% growth inhibition (GI50) is 5600 nM in the experiment on MDA-MB-231, 3200 nM in the experiment with A549 and 4500 nM with HT-29.
